Experimental data reported in patent US4550166A, “(Pyridinyl)-1,2,4-triazolo[4,3-a]pyridines” (American Cyanamid Company, priority 1984, dated 1985).

What was measured:
[1] = test system: Brain-specific Receptors of Rats (^3 H-benzodiazepine binding); assay: Inhibition of the Binding of ^3 H--Benzodiazepine to Brain-specific Receptors of Rats; parameters: species or system rats (male albino, Wistar strain); settings: 1 μM; whole cortex of rats, P2 fraction; ^3 H-diazepam (1.5 nM) or ^3 H-flunitrazepam (1.0 nM)
[2] = test system: clonic seizures caused by pentylenetetrazole in rats; assay: Protection Against Clonic Siezures Caused by Pentylenetetrazole in Rats; type: in vivo; settings: Dose 25 mg/kg, orally or intraperitoneally, pentylenetetrazole 23 mg/kg i.v. at 30 or 60 minutes
Protocol: The antianxiety properties of the novel compounds of the present invention have been established in a test which indicates anxiolytic activity by the measure of protection from convulsions resulting from the administration of pentylenetetrazole. Single or graded dose levels of the test compounds were administered orally or intraperitoneally in a 2% starch vehicle, containing 0.5% v/v polyethylene glycol and one drop of Polysorbate 80 to groups of at least four rats. At 30 or 60 minutes, the rats were treated intravenously with pentylenetetrazole at a dose of 23 mg/kg of body weight. This dose is estimated to cause clonic seizures in 99% of unprotected rats.
It has been reported [R. T. Hill and D. H. Tedeschi, "Animal Testing and Screening Procedures in Evaluating Psychotropic Drugs" in An Introduction to Psychopharmacology, Eds. R. R. Rech and K. E. Moore, Raven Press, New York, pp 237-288 (1971)] that there is a high degree of correlation between antagonism of pentylenetetrazole seizures in rats and antianxiety effects in higher warm-blooded animals.

[3] = test system: conflict situation in rats; assay: Non-Conditioned Passive Avoidance Test in Rats; type: in vivo, Wistar strain rats; parameters: key: Active: considered active if the number of shocks received by the test group is significantly higher than the control group by the Mann-Witney U test; settings: Dose 25 mg/kg, oral or intraperitoneal, 30 or 60 minutes
Protocol: Another test which has been used to assess anti-anxiety effects is a non-conditioned passive avoidance procedure described by J. R. Vogel, B. Beer and D. E. Clody, "A Simple and Reliable Conflict Procedure for Testing Antianxiety Agents", Psychopharmacologia, 21, 1-7 (1971). A conflict situation was induced in rats by a modification of this method.
Groups of 6 naive, Wistar strain rats, weighing 200-240 g each, were deprived of water for 48 hours and food for 24 hours. The test compounds were administered in single or graded, oral or intraperitoneal doses, suspended in a 2% starch vehicle containing 0.5% v/v polyethylene glycol and one drop of Polysorbate 80. Control animals received the vehicle alone. At 30 or 60 minutes each rat was placed in an individual plexiglass chamber. Water was available ad libitum from a tap located in the rear of the chamber. A 0.7 milliampere DC shocking current was established between the stainless steel grid floor and the tap. After 20 licks of non-shocked drinking, a shock was delivered for 2 seconds and then further shocks were delivered on a ratio of one shock for 2 seconds for every 20 licks. This was continued for a total of 3 minutes. The number of shocks taken by each rat during the 3 minute interval was recorded and compared to a control group.

Row | SMILES | % Inhibition [1] [%] | % of Rats Protected [2] [%] | Result [3]
1 | c1ccc(-c2cccn3cnnc23)nc1 [8-(2-Pyridinyl)-1,2,4-triazolo[4,3-a]pyridine] | 26 | – | –
2 | c1ccc(-c2ccn3cnnc3c2)nc1 [7-(2-Pyridinyl)-1,2,4-triazolo[4,3-a]pyridine] | 15 | 25 | –
3 | Cc1nnc2c(-c3cccnc3)cccn12 [3-Methyl-8-(3-pyridinyl)-1,2,4-triazolo[4,3-a]pyridine] | 24 | – | Active
4 | c1cncc(-c2cccn3cnnc23)c1 [8-(3-Pyridinyl)-1,2,4-triazolo[4,3-a]pyridine] | 18 | – | –
5 | Cc1nnc2cc(-c3ccccn3)ccn12 [3-Methyl-7-(2-pyridinyl)-1,2,4-triazolo[4,3-a]pyridine] | 27 | – | –
6 | Cc1nnc2ccc(-c3cccnc3)cn12 [3-Methyl-6-(3-pyridinyl)-1,2,4-triazolo[4,3-a]pyridine] | 20 | 75 | –
7 | Cc1nnc2c(-c3ccccn3)cccn12 [3-Methyl-8-(2-pyridinyl)-1,2,4-triazolo[4,3-a]pyridine] | 22 | – | Active
8 | c1cncc(-c2ccc3nncn3c2)c1 [6-(3-Pyridinyl)-1,2,4-triazolo[4,3-a]pyridine] | 13 | 33 | –
9 | Cc1nnc2cc(-c3ccncc3)ccn12 [3-Methyl-7-(4-pyridinyl)-1,2,4-triazolo[4,3-a]pyridine] | 24 | – | –
10 | c1ccc(-c2cccc3nncn23)nc1 [5-(2-Pyridinyl)-1,2,4-triazolo[4,3-a]pyridine] | 26 | – | –
